ChEMBL document CHEMBL1152960 (Bioorg Med Chem, 2009)

Tests used:
Adenosine receptor A1 = biological target: T1, Adenosine receptor A1 (Homo sapiens, UniProt P30542); assay: Displacement of [3H]DPCPX from human recombinant adenosine A1 receptor expressed in HEK293T cells by scintillation counting; format: cell-based, HEK-293T
T1 sequence (P30542 whole entry): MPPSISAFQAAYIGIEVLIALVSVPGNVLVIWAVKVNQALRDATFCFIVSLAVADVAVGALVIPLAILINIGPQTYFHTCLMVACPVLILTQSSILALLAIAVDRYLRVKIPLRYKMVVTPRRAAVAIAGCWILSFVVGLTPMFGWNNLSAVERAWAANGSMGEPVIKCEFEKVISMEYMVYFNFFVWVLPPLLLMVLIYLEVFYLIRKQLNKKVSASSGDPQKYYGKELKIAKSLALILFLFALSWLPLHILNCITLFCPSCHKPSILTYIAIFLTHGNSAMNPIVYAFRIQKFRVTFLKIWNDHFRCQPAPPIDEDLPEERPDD

Adenosine receptor A3 = biological target: T2, Adenosine receptor A3 (Homo sapiens, UniProt P0DMS8); assay: Displacement of [3H]NECA from human recombinant adenosine A3 receptor expressed in HEK293T cells by scintillation counting; format: cell-based, HEK-293T
T2 sequence (P0DMS8 whole entry): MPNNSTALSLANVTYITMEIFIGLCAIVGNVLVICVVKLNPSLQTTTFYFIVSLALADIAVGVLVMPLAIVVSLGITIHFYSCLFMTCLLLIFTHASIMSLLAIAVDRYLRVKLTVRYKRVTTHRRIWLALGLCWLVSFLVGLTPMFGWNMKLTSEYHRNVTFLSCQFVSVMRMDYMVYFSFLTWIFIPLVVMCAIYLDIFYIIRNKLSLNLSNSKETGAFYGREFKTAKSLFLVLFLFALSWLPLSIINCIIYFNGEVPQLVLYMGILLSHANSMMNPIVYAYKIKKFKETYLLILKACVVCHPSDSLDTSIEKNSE

Adenosine receptor A2a = Adenosine receptor A2a (Homo sapiens, UniProt P29274); assay: biochemical
Sequence of Adenosine receptor A2a (P29274 whole entry): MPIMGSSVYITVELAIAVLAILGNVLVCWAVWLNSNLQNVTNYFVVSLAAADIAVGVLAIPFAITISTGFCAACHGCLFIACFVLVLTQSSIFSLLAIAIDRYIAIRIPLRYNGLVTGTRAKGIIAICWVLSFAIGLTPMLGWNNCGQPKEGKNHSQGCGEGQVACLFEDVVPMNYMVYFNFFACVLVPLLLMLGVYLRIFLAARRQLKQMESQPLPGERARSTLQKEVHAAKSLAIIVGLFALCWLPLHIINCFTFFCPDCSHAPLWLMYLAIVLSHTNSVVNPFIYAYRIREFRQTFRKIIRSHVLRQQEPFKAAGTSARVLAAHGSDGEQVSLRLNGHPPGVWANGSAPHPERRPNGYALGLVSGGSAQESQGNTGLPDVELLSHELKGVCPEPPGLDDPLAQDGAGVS
Description: Displacement of [3H]CGS21680 from human recombinant adenosine A2A receptor expressed in HEK293T cells by scintillation counting

[1] = biological target: T3, Adenosine receptor A3 (Homo sapiens) (UniProt P0DMS8); assay: Inhibition of [3H]NECA binding to human recombinant adenosine A3 receptor expressed in HEK293T cells at 100 uM by scintillation counting; format: cell-based; settings: HEK-293T
T3 sequence (whole entry): T2 sequence (P0DMS8 whole entry)

| SMILES | Ki (Adenosine receptor A1) | Ki (Adenosine receptor A3) | Ki (Adenosine receptor A2a) | inhibition [1] |
| --- | --- | --- | --- | --- |
| CCCn1c(=O)c2[nH]c3cnccc3c2n(CCC)c1=O | 1410 nM | 290 nM | 3630 nM |  |
| Cn1c(=O)c2[nH]c3cccnc3c2n(C)c1=O | 379 nM | 13.9 nM | 893 nM |  |
| CCCOc1cncc2[nH]c3c(=O)n(CCC)c(=O)n(CCC)c3c12 | 346 nM | 3.82 nM | 164 nM |  |
| Cn1c(=O)c2c(ncn2C)n(C)c1=O |  |  |  | 9% |
| Cn1c(=O)c2[nH]c3cnccc3c2n(C)c1=O | 11700 nM | 526 nM | 10100 nM |  |
| CCCOc1cnc2c(c1)[nH]c1c(=O)n(CCC)c(=O)n(CCC)c12 | 921 nM | 209 nM | 1470 nM |  |
| CCCn1c(=O)c2[nH]c3cccnc3c2n(CCC)c1=O | 132 nM | 16.8 nM | 570 nM |  |
